# Test: recombinant UMI read abundance after kanamycin selection (control-corrected) (log10(CPM+1)); higher = more efficient recombination; extreme values may be limits of the assay; sequences stand for … in AGTGCAGAGAAAATCGGCCAGTTTTCTCTGCCTGCAGTCCGCATGCCGTGGGACCCCTTGGGTTCTAACCTGTTGCCTAGATTTATGCAGCGGACTGCCTTTCTCCCAAAGTGATAAACCGG…AGGTTGGTTTCACT; site = the 11-nt donor
# How it was run: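 After plating on IPTG (0.07 mM) plus kanamycin, or unselected, in two replicates, recombinant UMIs were PCR-amplified across the donor–target junction and sequenced. The cells were Escherichia coli co-electroporated with a UMI-tagged donor and donor-binding-loop pair library and a target plasmid with a fixed target and T7-inducible IS621 bridge recombinase. Values are log10(CPM+1), with CPM averaged over replicates and scaled by control-derived factors.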
row,Sequence,recombinant UMI read abundance (log10)
1,AAGCACGCATGGACCGGTTTTCCCGGTAATCCGTATTTGGG (site AACCACGCTCC),0.0266
2,TCCGCCGCATGGACCGGTTTTCCCGGTAATCCGTATTTGCG (site TCCACCGCTCG),0
3,AACCGTTCATGGACCGGTTTTCCCGGTAATCCGTATTTGAT (site AACCGTACTAT),0.00732
4,TAAGCAGCATGGACCGGTTTTCCCGGTAATCCGTATTTGGC (site TAAGCAGCTGC),2.92
5,GTTAGAACATGGACCGGTTTTCCCGGTAATCCGTATTTGGA (site GTTAGAACTTC),0.178
6,GGATAGACATGGACCGGTTTTCCCGGTAATCCGTATTTGCC (site GGAAAGACTGG),0
7,GGACCAACATGGACCGGTTTTCCCGGTAATCCGTATTTGTA (site GGGCCAACTTA),0.0083
8,CCAGGTGCATGGACCGGTTTTCCCGGTAATCCGTATTTGTT (site CCAGGTGCTAC),0.00844
9,AGCCTATCATGGACCGGTTTTCCCGGTAATCCGTATTTGAC (site AGCCTTTCTGT),0
10,AGGAGTACATGGACCGGTTTTCCCGGTAATCCGTATTTGAC (site AGGATTACTGT),0.00638
11,AATGTGACATGGACCGGTTTTCCCGGTAATCCGTATTTGAC (site AATGTGTCTGT),0
12,TAGAAGACATGGACCGGTTTTCCCGGTAATCCGTATTTGCC (site TAGAAGACTGG),2.25
13,ACACTTTCATGGACCGGTTTTCCCGGTAATCCGTATTTGCA (site ACACTTTCTTG),2.82
14,CTGCTACCATGGACCGGTTTTCCCGGTAATCCGTATTTGCT (site CTGCTACCTGG),0
15,CGTTGTCCATGGACCGGTTTTCCCGGTAATCCGTATTTGCT (site CGTTGTCCTAG),0.968
16,CCCTTCTCATGGACCGGTTTTCCCGGTAATCCGTATTTGGT (site CCCTTCTCTCC),0.182
17,CAAGGAGCATGGACCGGTTTTCCCGGTAATCCGTATTTGTC (site CAAGGAGCTGA),3.18
18,CAAGTCACATGGACCGGTTTTCCCGGTAATCCGTATTTGAG (site CAAGTCACTCG),1.1
19,TAGAAATCATGGACCGGTTTTCCCGGTAATCCGTATTTGCG (site TAGGAATCTCG),1.44
20,CAAAGTCCATGGACCGGTTTTCCCGGTAATCCGTATTTGTA (site AAAAGTCCTTA),0.474
21,AGCCTAGCATGGACCGGTTTTCCCGGTAATCCGTATTTGAT (site AGCCTAGCTAG),0
22,CGCCATACATGGACCGGTTTTCCCGGTAATCCGTATTTGCT (site CGCCTTACTAG),0.046
23,GTGGGTACATGGACCGGTTTTCCCGGTAATCCGTATTTGAC (site GTCGGTACTGT),0
24,CTCTTGGCATGGACCGGTTTTCCCGGTAATCCGTATTTGGA (site CACTTGGCTTC),0.273
25,CACATGGCATGGACCGGTTTTCCCGGTAATCCGTATTTGGA (site CACTTGGCTTC),0.388

row,Sequence,recombinant UMI read abundance (log10)
1,TCCGCCGCATGGACCGGTTTTCCCGGTAATCCGTATTTGCG (site TCCGCCGCTCG),0.0179
2,TTTGCGGCATGGACCGGTTTTCCCGGTAATCCGTATTTGTT (site TTTGCGGCTAC),0.0157
3,CCCTAACCATGGACCGGTTTTCCCGGTAATCCGTATTTGCC (site CCCTAGCCTGG),0
4,GGGGCACCATGGACCGGTTTTCCCGGTAATCCGTATTTGCA (site GGGACACCTTG),0
5,CTTATAACATGGACCGGTTTTCCCGGTAATCCGTATTTGGA (site CTTATAACTTC),1
6,ATCTATACATGGACCGGTTTTCCCGGTAATCCGTATTTGTC (site ATCTATACTGT),0
7,TGCGGTCCATGGACCGGTTTTCCCGGTAATCCGTATTTGAA (site TGCGGTCCTTT),0
8,GGCCAGCCATGGACCGGTTTTCCCGGTAATCCGTATTTGTT (site GGCCATCCTAA),0
9,GGCAGTGCATGGACCGGTTTTCCCGGTAATCCGTATTTGGA (site GGCAGTGCTTC),0.329
10,AGCCTATCATGGACCGGTTTTCCCGGTAATCCGTATTTGAC (site AGCCTCTCTGT),0
11,CGGGGCTCATGGACCGGTTTTCCCGGTAATCCGTATTTGCA (site CGGGGCTCTTG),2.79
12,CTGCTACCATGGACCGGTTTTCCCGGTAATCCGTATTTGCT (site CTGCGACCTAG),0
13,GAAGACTCATGGACCGGTTTTCCCGGTAATCCGTATTTGTT (site GAAGATTCTAA),0.506
14,AATTATACATGGACCGGTTTTCCCGGTAATCCGTATTTGGA (site AATTATGCTTC),0.476
15,GTGCTTGCATGGACCGGTTTTCCCGGTAATCCGTATTTGGT (site GTGCATGCTAC),0.0165
16,GTGCATGCATGGACCGGTTTTCCCGGTAATCCGTATTTGGT (site GTGCATGCTAG),0.442
17,CCCTTATCATGGACCGGTTTTCCCGGTAATCCGTATTTGGG (site CCCTTGTCTCC),0.0199
18,CTTCCGACATGGACCGGTTTTCCCGGTAATCCGTATTTGAC (site CTTCCGACTGT),2.04
19,CTATCGACATGGACCGGTTTTCCCGGTAATCCGTATTTGTT (site CAATCGACTAA),0.0124
20,ACCTTGACATGGACCGGTTTTCCCGGTAATCCGTATTTGGG (site ACCTTGACTCC),0.0408
21,CAATGTTCATGGACCGGTTTTCCCGGTAATCCGTATTTGAA (site CAATGGTCTTT),0.0106
22,CAAGCTGCATGGACCGGTTTTCCCGGTAATCCGTATTTGCT (site CAAGCCGCTAG),0.95
23,TCCCCAACATGGACCGGTTTTCCCGGTAATCCGTATTTGCT (site TCCCCAACTAG),0.417
24,AATGTGTCATGGACCGGTTTTCCCGGTAATCCGTATTTGGC (site AATGTGTCTGA),0
25,CCAAGGTCATGGACCGGTTTTCCCGGTAATCCGTATTTGTT (site CCAAGGTCTAA),2.12

row,Sequence,recombinant UMI read abundance (log10)
1,AGCAAGACATGGACCGGTTTTCCCGGTAATCCGTATTTGGA (site AGCAAGACTTC),1.8
2,ACTAGGGCATGGACCGGTTTTCCCGGTAATCCGTATTTGGT (site ACTAGCGCTAC),0.00536
3,CAAGCTGCATGGACCGGTTTTCCCGGTAATCCGTATTTGCT (site CAAGCGGCTAG),0
4,TGGCCGGCATGGACCGGTTTTCCCGGTAATCCGTATTTGGC (site TGGCCAGCTGC),0
5,GATTCTCCATGGACCGGTTTTCCCGGTAATCCGTATTTGCT (site GATTGTCCTAG),0
6,TCCTAATCATGGACCGGTTTTCCCGGTAATCCGTATTTGTC (site TCCTAATCTGA),0
7,GATCGTGCATGGACCGGTTTTCCCGGTAATCCGTATTTGGC (site GATCGTGCTGC),1.18
8,CGGAAATCATGGACCGGTTTTCCCGGTAATCCGTATTTGCT (site CGGATATCTAG),0
9,TGTGGTCCATGGACCGGTTTTCCCGGTAATCCGTATTTGTC (site TGTGGTCCTGA),0
10,TATTTGGCATGGACCGGTTTTCCCGGTAATCCGTATTTGTG (site TATTTCGCTCA),0.00607
11,ACTAGAACATGGACCGGTTTTCCCGGTAATCCGTATTTGAG (site ACTAGAACTTT),0.286
12,GAGCTCACATGGACCGGTTTTCCCGGTAATCCGTATTTGCT (site GAGCTCACTAG),2.24
13,AATGGAACATGGACCGGTTTTCCCGGTAATCCGTATTTGCT (site AATGGAACTAG),2.12
14,GGATAGACATGGACCGGTTTTCCCGGTAATCCGTATTTGCC (site GGATAGCCTGG),0.943
15,GAGTTGGCATGGACCGGTTTTCCCGGTAATCCGTATTTGTA (site GAGTTGGCTTA),2.18
16,TGCTAGTCATGGACCGGTTTTCCCGGTAATCCGTATTTGGT (site TGCTAGACTAC),0.00505
17,AGAAAACCATGGACCGGTTTTCCCGGTAATCCGTATTTGCG (site AGAAAACCTCG),0
18,TCCAATTCATGGACCGGTTTTCCCGGTAATCCGTATTTGCC (site TCCACTTCTGG),0
19,CGGACATCATGGACCGGTTTTCCCGGTAATCCGTATTTGGT (site CGGACATCTAT),1.15
20,TGGTTCCCATGGACCGGTTTTCCCGGTAATCCGTATTTGTG (site GGGTTCCCTCA),0.0263
21,ATTCTTACATGGACCGGTTTTCCCGGTAATCCGTATTTGAG (site ATTCTTACTCT),0.0416
22,ATGTAGCCATGGACCGGTTTTCCCGGTAATCCGTATTTGGC (site ATGTAGACTGC),0
23,ACTAGAGCATGGACCGGTTTTCCCGGTAATCCGTATTTGAG (site ACTAGAGCTCT),2.15
24,GGAGTGTCATGGACCGGTTTTCCCGGTAATCCGTATTTGGT (site GGAGTGCCTAC),0.00939
25,GTCTAACCATGGACCGGTTTTCCCGGTAATCCGTATTTGTC (site GTCTAACCTGA),0
